Data reported in patent US4366159A (priority 1981, dated 1982).
Where a name gives a salt, the structure may show the parent alone. Read-outs that look alike come from different tables or passages of the source.

Experiments:
[1] = mouse antiphenylquinone writhing test; details: for % mice blocked: 0:1 (morphine SO4 only)
[2] = Procedure: (§1) The effect on anesthetic requirements and PaCO2 of combined doses of nalbuphine hydrochloride and morphine sulfate was evaluated in 18 Sprague-Dawley rats (200-350 gms). Anesthetic requirements for cyclopropane anesthetic of each rat was determined using a tail-clamp technique (Munson et al., The Effect of Acute Hypothyroidism and Hyperthyoidism on Cyclopropane Requirements (MAC) in Rats, Anesthesiology 1968; 29:1094-1098). After induction of anesthesia with cyclopropane, the femoral artery and vein were exposed and catheterized with PE50 tubing. Anesthetic requirement as measured by minimal alveolar concentration (MAC) was determined and thereafter nalbuphine hydrochloride was administered intravenously. Upon completion of control measurements, a bolus dose of 0.04 mg/kg of nalbuphine hydrochloride was followed with a constant infusion of 0.1 mg/kg/min. After 45 minutes of continuous infusion, MAC was redetermined and arterial blood sampling repeated. The rat then received either 2, 4 or 8 mg/kg subcutaneously of morphine sulfate and after 30 minutes MAC and arterial blood gas (ABG) values (PaO2, PaCO2, pH, HCO3) redetermined.
The effect of morphine sulfate alone on anesthetic requirement and respiration was evaluated in a separate group of five Sprague-Dawley rats. […]

[3] = anesthetic requirement (MAC) for cyclopropane, tail-clamp technique; format: in vivo, Sprague-Dawley rats
Procedure: as §1
The effect of morphine sulfate alone on anesthetic requirement and respiration was evaluated in a separate group of five Sprague-Dawley rats. After baseline measurements of anesthetic requirement (MAC) and ABG values, 2 mg/kg of morphine sulfate was given subcutaneously and after 30 minutes, repeat measurements of anesthetic requirements and blood gases were carried out.
Statistical evaluation was carried out using analysis of variance comparing the groups of animals at different infusion rates of nalbuphine hydrochloride, and for the animals receiving the combined morphine sulfatenalbuphine hydrochloride doses.

[4] = from a previous study, cited from earlier work
[5] = human, in vivo
Procedure: The nalbuphine was administered parenterally as each patient was coming out of the anesthesia. […] The respiratory effect of the nalbuphine was established by measurement of arterial PaCO2 using a blood gas analyzer well known in respiratory therapy. Normal PaCO2 is in the range of 35-42 mmHg. All arterial samples were obtained on an inspired oxygen concentration of 100%.

Row | Structure (SMILES) | % mice blocked ([1]; s.c., 10 min, 0.373 mg/kg) [%] | % mice blocked ([1]; s.c., 10 min, 0.745 mg/kg) [%] | % mice blocked ([1]; s.c., 10 min, 1.49 mg/kg) [%] | % mice blocked ([1]; s.c., 10 min, 2.98 mg/kg) [%] | ED50 at 10 min., Morphine SO4 ([1]; s.c., 10 min, morphine SO4 dose (alone or as component of combination), N = 30 mice/dose, 95% conf. limits printed on following lines) [mg/kg] | mean PaCO2 compared with comparable MAC reduction dose of nalbuphine ([2]; morphine 2 mg/kg) | MAC Reduction % (Mean ± SEM) ([3]; morphine SO4 2 mg/kg sc, 30 min) [%] | MAC Reduction % (Mean ± SEM) ([3]; morphine SO4 2 mg/kg sc, 30 min, listed as morphine) [%] | MAC Reduction % (Mean ± SEM) ([4]; morphine SO4 2 mg/kg sc) [%] | MAC Reduction % (Mean ± SEM) ([4]; morphine SO4 4 mg/kg sc) [%] | MAC Reduction % (Mean ± SEM) ([4]; morphine SO4 8 mg/kg sc) [%] | ED50 at 10 min., Nalbuphine HCl ([1]; mouse, in vivo, sc) [mg/kg] | PaCO2 (Mean ± SEM) ([2]; rat, in vivo) [mmHg] | MAC Reduction % (Mean ± SEM) ([3]; rat, in vivo) [%] | duration of analgesia [5] [h] | emergence from anesthesia [5] | hypoxia and shunt [5] | pH after nalbuphine [5] | respiratory acidosis present before nalbuphine [5] | respiratory depression resulting from the narcotic [5]
1 | CN1CC[C@]23c4c5ccc(O)c4O[C@H]2[C@@H](O)C=C[C@H]3[C@H]1C5 [Morphine SO4] | 17 | 37 | 83 | 100 | 0.832 | significantly higher | 22 ± 0.55 | 22 | 21.80 ± 1.48 | 32.63 ± 0.98 | 54.87 ± 1.94 |  |  |  |  |  |  |  |  | 
2 | Oc1ccc2c3c1O[C@H]1[C@@H](O)CC[C@@]4(O)[C@@H](C2)N(CC2CCC2)CC[C@]314 [Nalbuphine HCl, (-)-17-(cyclobutylmethyl)-4,5α-epoxymorphinan-3,6α, 14-triol] |  |  |  |  |  |  |  |  |  |  |  | 2.17 | 48.31 ± 1.07 | 21.62 ± 0.69 | 8 to 12 | smooth, rapid | No patient was hypoxic, nor was there any significant shunt present | 7.35±0.6 | completely reversed | reversed in all cases
